Structures are written as SMILES.

These results are taken from US12247032B2, “Substituted pyrazolo[1,5-a]pyrimidines as inhibitors of JAK kinases” (Genentech, Inc., priority 2019, dated 2025).

Assay [1] deals with T1, recombinant human JAK1 kinase domain protein (Residues 854-1154) (Homo sapiens, UniProt P23458).
T1 construct: human JAK1 kinase domain protein (Residues 854-1154); purchased Proteros Biostructures GmbH (Martinsried, Germany); host or cells: insect cells
Put plainly: JAK1 biochemical assay (microfluidic mobility shift, peptide phosphorylation). Conditions: 25 μM ATP, 1 nM total JAK1; Ki calculated from Ki app (tight-binding, competitive); read-out: Biochem JAK1 Ki. The method in brief: (§1)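 Insect-cell-expressed human JAK1 (1 nM, residues 854-1154) or JAK2 (0.2 nM, residues 812-1132) phosphorylating 1.5 μM 5-FAM peptide Y-1B with 25 μM ATP, pH 7.2 HEPES, 30 min at 22-23 °C; twelve concentrations up to 1000 nM in duplicate. Mobility-shift % conversion fitted to tight-binding quadratic for Ki^app.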

For assay [2], the target named is T2, Recombinant human JAK2 kinase domain protein (Residues 812-1132) (Homo sapiens, UniProt O60674).
T2 construct: human JAK2 kinase domain protein (Residues 812-1132); made in house; host or cells: insect cells
The assay can be described thus: JAK2 biochemical assay (microfluidic mobility shift, peptide phosphorylation). The conditions noted are these: 25 μM ATP, 0.2 nM total JAK2; Ki calculated from Ki app (tight-binding, competitive); read-out: Biochem JAK2 Ki. Put shortly:
as §1

For assay [3], the system named is JAK1 (IL-13-stimulated STAT6 phosphorylation in BEAS-2B cells). Put plainly: P-STAT6 BEAS-2B+IL-13 cell assay. Conditions: Homo sapiens, BEAS-2B, 1 h, 1 hour compound, IL-13 15 minutes, IC50 by four-parameter fit, read-out: Cellular JAK1 PSTAT6 BEAS2B + IL13. Format: cell-based, human. Put shortly: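 BEAS-2B human bronchial epithelial cells preincubated 1 h at 37 °C with compound, then stimulated with human recombinant IL-13 for 15 min. Phospho-STAT6 (Tyr641) in lysates measured by MSD electrochemiluminescence immunoassay; IC50 from a four-parameter logistic fit of percent of control.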

T1 sequence (P23458 854-1154): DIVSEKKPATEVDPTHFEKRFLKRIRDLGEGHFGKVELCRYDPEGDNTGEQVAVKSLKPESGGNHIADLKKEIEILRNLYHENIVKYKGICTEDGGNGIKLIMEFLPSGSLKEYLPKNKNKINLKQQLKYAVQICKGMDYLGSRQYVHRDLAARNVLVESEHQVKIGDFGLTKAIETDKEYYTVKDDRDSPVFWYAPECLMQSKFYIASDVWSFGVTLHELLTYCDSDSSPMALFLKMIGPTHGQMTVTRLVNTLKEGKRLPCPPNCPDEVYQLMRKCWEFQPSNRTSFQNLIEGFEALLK
T2 sequence (O60674 812-1132): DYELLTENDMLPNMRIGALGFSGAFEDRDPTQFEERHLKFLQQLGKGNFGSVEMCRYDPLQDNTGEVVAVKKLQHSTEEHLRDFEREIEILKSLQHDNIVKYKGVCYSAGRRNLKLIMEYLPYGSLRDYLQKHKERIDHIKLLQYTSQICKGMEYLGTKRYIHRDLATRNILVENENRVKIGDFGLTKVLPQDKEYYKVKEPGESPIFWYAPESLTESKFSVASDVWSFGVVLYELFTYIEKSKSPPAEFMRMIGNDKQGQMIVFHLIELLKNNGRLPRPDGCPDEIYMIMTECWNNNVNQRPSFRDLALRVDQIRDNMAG

Take `O=C(Nc1cn(Cc2nnn(CCN3CCNCC3)n2)nc1-c1cc(Cl)ccc1OC(F)F)c1cnn2cccnc12` [Example 40, N-[3-[5-chloro-2-(difluoromethoxy)phenyl]-1-[[2-(2-piperazin-1-ylethyl)tetrazol-5-yl]methyl]pyrazol-4-yl]pyrazolo[1,5-a]pyrimidine-3-carboxamide]: the Ki in assay [1] was 0.78 nM; in assay [2] it was 0.68 nM. Also, the IC50 in assay [3] turned out to be 86 nM.
As for `CSc1ccc(OC(F)F)c(-c2nn(Cc3nnnn3CCN(C)C)cc2NC(=O)c2cnn3cccnc23)c1` [Example 41, N-[3-[2-(difluoromethoxy)-5-methylsulfanyl-phenyl]-1-[[1-[2-(dimethylamino)ethyl]tetrazol-5-yl]methyl]pyrazol-4-yl]pyrazolo[1,5-a]pyrimidine-3-carboxamide], the Ki in assay [1] is 0.32 nM; in assay [2], 0.2 nM. The IC50 in assay [3] was 14 nM.
In the same order, the values of `CN1CCN(CCn2nnnc2Cn2cc(NC(=O)c3cnn4cccnc34)c(-c3cc(Cl)ccc3OC(F)F)n2)CC1` [Example 42, N-[3-[5-chloro-2-(difluoromethoxy)phenyl]-1-[[1-[2-(4-methylpiperazin-1-yl)ethyl]tetrazol-5-yl]methyl]pyrazol-4-yl]pyrazolo[1,5-a]pyrimidine-3-carboxamide] are 0.33 nM, 0.22 nM and 16 nM.
The matching figures for `CN(C)CCn1nnc(Cn2cc(NC(=O)c3cnn4cccnc34)c(-c3cc4c(cc3OC(F)F)NCCO4)n2)n1` [Example 43, N-[3-[6-(difluoromethoxy)-3,4-dihydro-2H-1,4-benzoxazin-7-yl]-1[[2-[2-(dimethylamino)ethyl]tetrazol-5-yl]methyl]pyrazol-4-yl]pyrazolo[1,5-a]pyrimidine-3-carboxamide]: 0.86 nM, 0.34 nM and 36 nM.
As to `CN(C)CCn1nnnc1Cn1cc(NC(=O)c2cnn3cccnc23)c(-c2cc3c(cc2OC(F)F)NCCO3)n1` [Example 44, N-[3-[6-(difluoromethoxy)-3,4-dihydro-2H-1,4-benzoxazin-7-yl]-1-[[1-[2-(dimethylamino)ethyl]tetrazol-5-yl]methyl]pyrazol-4-yl]pyrazolo[1,5-a]pyrimidine-3-carboxamide], the Ki in assay [1] was 0.71 nM; in assay [2], 0.47 nM. Moreover, in assay [3], the IC50 was determined as 25 nM.
The matching figures for `CN1CC(N(C)CCn2nnnc2Cn2cc(NC(=O)c3cnn4cccnc34)c(-c3cc(OC(F)F)ccc3OC(F)F)n2)C1` [Example 45, N-[3-[2,5-bis(difluoromethoxy)phenyl]-1-[[1-[2-[methyl-(1-methylazetidin-3-yl)amino]ethyl]tetrazol-5-yl]methyl]pyrazol-4-yl]pyrazolo[1,5-a]pyrimidine-3-carboxamide]: 0.81 nM, 0.65 nM and 81 nM.
The matching figures for `CSc1ccc(OC(F)F)c(-c2nn(Cc3nnn(C4CN(CCN(C)C)C4)n3)cc2NC(=O)c2cnn3cccnc23)c1` [Example 47, N-[3-[2-(difluoromethoxy)-5-methylsulfanyl-phenyl]-1-[[2-[1-[2-(dimethylamino)ethyl]azetidin-3-yl]tetrazol-5-yl]methyl]pyrazol-4-yl]pyrazolo[1,5-a]pyrimidine-3-carboxamide]: 0.46 nM, 0.32 nM and 16 nM.
The matching figures for `CN1CC(N(C)CCn2nnc(Cn3cc(NC(=O)c4cnn5cccnc45)c(-c4cc(OC(F)F)ccc4OC(F)F)n3)n2)C1` [Example 48, N-[3-[2,5-bis(difluoromethoxy)phenyl]-1-[[2-[2-[methyl-(1-methylazetidin-3-yl)amino]ethyl]tetrazol-5-yl]methyl]pyrazol-4-yl]pyrazolo[1,5-a]pyrimidine-3-carboxamide]: 0.63 nM, 0.54 nM and 15 nM.
In the case of `CN(C)CCN1CC(n2nnc(Cn3cc(NC(=O)c4cnn5cccnc45)c(-c4cc(C5CC5)ccc4OC(F)F)n3)n2)C1` [Example 50, N-[3-[5-cyclopropyl-2-(difluoromethoxy)phenyl]-1-[[2-[1-[2-(dimethylamino)ethyl]azetidin-3-yl]tetrazol-5-yl]methyl]pyrazol-4-yl]pyrazolo[1,5-a]pyrimidine-3-carboxamide], the Ki in assay [1] is 0.5 nM; in assay [2], 0.44 nM. Also, in assay [3], the IC50 was 16 nM.
In the same order, the values of `CN(C)CCCN1CC(n2nnc(Cn3cc(NC(=O)c4cnn5cccnc45)c(-c4cc(OC(F)F)ccc4OC(F)F)n3)n2)C1` [Example 51, N-[3-[2,5-bis(difluoromethoxy)phenyl]-1-[[2-[1-[3-(dimethylamino)propyl]azetidin-3-yl]tetrazol-5-yl]methyl]pyrazol-4-yl]pyrazolo[1,5-a]pyrimidine-3-carboxamide] are 0.37 nM, 0.37 nM and 12 nM.
In the same order, the values of `CN(C)CCCCN1CC(n2nnc(Cn3cc(NC(=O)c4cnn5cccnc45)c(-c4cc(OC(F)F)ccc4OC(F)F)n3)n2)C1` [Example 55, N-[3-[2,5-bis(difluoromethoxy)phenyl]-1-[[2-[1-[4-(dimethylamino)butyl]azetidin-3-yl]tetrazol-5-yl]methyl]pyrazol-4-yl]pyrazolo[1,5-a]pyrimidine-3-carboxamide] are 0.6 nM, 0.58 nM and 44 nM.
With `CN1CC(CN2CC(n3nnc(Cn4cc(NC(=O)c5cnn6cccnc56)c(-c5cc(OC(F)F)ccc5OC(F)F)n4)n3)C2)C1` [Example 56, N-[3-[2,5-bis(difluoromethoxy)phenyl]-1-[[2-[1-[(1-methylazetidin-3-yl)methyl]azetidin-3-yl]tetrazol-5-yl]methyl]pyrazol-4-yl]pyrazolo[1,5-a]pyrimidine-3-carboxamide], the Ki is 0.84 nM in assay [1] and 0.73 nM in assay [2]. Besides, the IC50 in assay [3] worked out at 80 nM.
In the same order, the values of `CN(C)CCCN1CC(n2nnc(Cn3cc(NC(=O)c4cnn5cccnc45)c(-c4cc(C5CC5)ccc4OC(F)F)n3)n2)C1` [Example 57, N-[3-[5-cyclopropyl-2-(difluoromethoxy)phenyl]-1-[[2-[1-[3-(dimethylamino)propyl]azetidin-3-yl]tetrazol-5-yl]methyl]pyrazol-4-yl]pyrazolo[1,5-a]pyrimidine-3-carboxamide] are 0.71 nM, 0.55 nM and 73 nM.
In the same order, the values of `CN(C)C1CCN(CCn2nnc(Cn3cc(NC(=O)c4cnn5cccnc45)c(-c4cc(OC(F)F)ccc4OC(F)F)n3)n2)CC1` [Example 59, N-[3-[2,5-bis(difluoromethoxy)phenyl]-1-[[2-[2-[4-(dimethylamino)-1-piperidyl]ethyl]tetrazol-5-yl]methyl]pyrazol-4-yl]pyrazolo[1,5-a]pyrimidine-3-carboxamide] are 1 nM, 0.71 nM and 62 nM.
In the same order, the values of `CN(C)C1CCN(CCn2nnnc2Cn2cc(NC(=O)c3cnn4cccnc34)c(-c3cc(OC(F)F)ccc3OC(F)F)n2)CC1` [Example 60, N-[3-[2,5-bis(difluoromethoxy)phenyl]-1-[[1-[2-[4-(dimethylamino)-1-piperidyl]ethyl]tetrazol-5-yl]methyl]pyrazol-4-yl]pyrazolo[1,5-a]pyrimidine-3-carboxamide] are 0.81 nM, 0.97 nM and 70 nM.
As for `CN(C)CCCN1CC(n2nnc(Cn3cc(NC(=O)c4cnn5cccnc45)c(-c4cc(Cl)ccc4OC(F)F)n3)n2)C1` [Example 62, N-[3-[5-chloro-2-(difluoromethoxy)phenyl]1-[[2-[1-[3-(dimethylamino)propyl]azetidin-3-yl]tetrazol-5-yl]methyl]pyrazol-4-yl]pyrazolo[1,5-a]pyrimidine-3-carboxamide], the Ki was 0.66 nM in assay [1] and 0.38 nM in assay [2]. For the same compound, the IC50 in assay [3] stood at 38 nM.
In the same order, the values of `CN(C)[C@H]1C[C@@H](n2nnc(Cn3cc(NC(=O)c4cnn5cccnc45)c(-c4cc(OC(F)F)ccc4OC(F)F)n3)n2)C1` [Example 63, N-[3-[2,5-bis(difluoromethoxy)phenyl]-1-[[2-[3-(dimethylamino)cyclobutyl]tetrazol-5-yl]methyl]pyrazol-4-yl]pyrazolo[1,5-a]pyrimidine-3-carboxamide] are 0.64 nM, 0.46 nM and 22 nM.
The matching figures for `CN(C)[C@H]1C[C@H](n2nnc(Cn3cc(NC(=O)c4cnn5cccnc45)c(-c4cc(OC(F)F)ccc4OC(F)F)n3)n2)C1` [Example 64, N-[3-[2,5-bis(difluoromethoxy)phenyl]-1-[[2-[3-(dimethylamino)cyclobutyl]tetrazol-5-yl]methyl]pyrazol-4-yl]pyrazolo[1,5-a]pyrimidine-3-carboxamide; formic acid]: 0.87 nM, 0.55 nM and 17 nM.
